The values below come from ChEMBL document CHEMBL1158256, “Betulinans A and B, two benzoquinone compounds from Lenzites betulina” (J Nat Prod, 1996).

Values after ≈ are worked out from the molar mass of the structure shown.

What is called IC50 is the concentration that gives 50% inhibition. The low end stands for inhibition by little substance, the high end for a need for much substance.

For the assay, the system named is Liver microsomes. In words: Inhibition of lipid peroxidation in rat liver microsomes. The assay is classed as functional, Microsome. On the technique in general: Liver microsomes are vesicles of endoplasmic reticulum, rich in cytochrome P450 enzymes.
The molecule `COC1=C(c2ccccc2)C(=O)C(OC)=C(c2ccccc2)C1=O` [BETULINAN A] displayed an IC50 of 0.46 µg/mL (≈ 1.44 µM). For VITAMIN E, the IC50 amounted to 1.68 µg/mL. As for `COC1=C(c2ccccc2)C(=O)C2=C(C1=O)c1ccccc1CO2` [BETULINAN B], the figure is 2.88 µg/mL (≈ 9.05 µM).
